According to ChEMBL document CHEMBL4177740, “Selective inhibition of β-N-acetylhexosaminidases by thioglycosyl-naphthalimide hybrid molecules” (Bioorg Med Chem, 2018):

Tests used:
[1] = target: T1, Protein O-GlcNAcase (Homo sapiens) (UniProt O60502); assay: Inhibition of recombinant human OGA expressed in Escherichia coli BL21(DE3) at 100 uM using 4-MU-GlcNAc as substrate measured after 30 mins by fluorescence assay relative to control
T1 sequence (whole entry): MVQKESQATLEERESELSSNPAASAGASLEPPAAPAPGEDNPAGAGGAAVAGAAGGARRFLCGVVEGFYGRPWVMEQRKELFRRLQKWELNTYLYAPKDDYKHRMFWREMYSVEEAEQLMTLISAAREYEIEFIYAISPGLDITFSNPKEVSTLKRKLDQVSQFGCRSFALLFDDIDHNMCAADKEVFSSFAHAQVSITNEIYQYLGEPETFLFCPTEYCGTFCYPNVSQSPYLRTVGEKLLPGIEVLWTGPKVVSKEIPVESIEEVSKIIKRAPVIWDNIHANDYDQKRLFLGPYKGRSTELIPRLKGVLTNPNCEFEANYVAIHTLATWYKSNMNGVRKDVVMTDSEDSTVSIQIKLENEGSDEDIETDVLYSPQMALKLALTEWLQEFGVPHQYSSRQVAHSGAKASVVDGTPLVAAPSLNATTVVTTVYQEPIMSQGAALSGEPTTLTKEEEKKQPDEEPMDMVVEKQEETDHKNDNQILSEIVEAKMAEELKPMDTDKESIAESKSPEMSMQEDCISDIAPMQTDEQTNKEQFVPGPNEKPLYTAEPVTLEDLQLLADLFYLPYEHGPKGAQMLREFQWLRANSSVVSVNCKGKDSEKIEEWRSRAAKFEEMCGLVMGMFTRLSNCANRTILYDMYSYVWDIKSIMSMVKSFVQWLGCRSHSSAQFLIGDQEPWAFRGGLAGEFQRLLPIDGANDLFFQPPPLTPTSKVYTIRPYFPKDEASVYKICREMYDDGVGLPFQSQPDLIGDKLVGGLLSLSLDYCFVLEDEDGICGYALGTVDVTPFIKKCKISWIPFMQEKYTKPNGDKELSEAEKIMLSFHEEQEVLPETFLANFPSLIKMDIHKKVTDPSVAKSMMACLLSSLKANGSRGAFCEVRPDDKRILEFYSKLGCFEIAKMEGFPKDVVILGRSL

[2] = target: T2, Chitooligosaccharidolytic beta-N-acetylglucosaminidase (Ostrinia furnacalis) (UniProt Q06GJ0); assay: Inhibition of Ostrinia furnacalis Hex1 expressed in Pichia pastoris at 100 uM using 4-MU-GlcNAc as substrate measured after 30 mins by fluorescence assay relative to control
T2 sequence (whole entry): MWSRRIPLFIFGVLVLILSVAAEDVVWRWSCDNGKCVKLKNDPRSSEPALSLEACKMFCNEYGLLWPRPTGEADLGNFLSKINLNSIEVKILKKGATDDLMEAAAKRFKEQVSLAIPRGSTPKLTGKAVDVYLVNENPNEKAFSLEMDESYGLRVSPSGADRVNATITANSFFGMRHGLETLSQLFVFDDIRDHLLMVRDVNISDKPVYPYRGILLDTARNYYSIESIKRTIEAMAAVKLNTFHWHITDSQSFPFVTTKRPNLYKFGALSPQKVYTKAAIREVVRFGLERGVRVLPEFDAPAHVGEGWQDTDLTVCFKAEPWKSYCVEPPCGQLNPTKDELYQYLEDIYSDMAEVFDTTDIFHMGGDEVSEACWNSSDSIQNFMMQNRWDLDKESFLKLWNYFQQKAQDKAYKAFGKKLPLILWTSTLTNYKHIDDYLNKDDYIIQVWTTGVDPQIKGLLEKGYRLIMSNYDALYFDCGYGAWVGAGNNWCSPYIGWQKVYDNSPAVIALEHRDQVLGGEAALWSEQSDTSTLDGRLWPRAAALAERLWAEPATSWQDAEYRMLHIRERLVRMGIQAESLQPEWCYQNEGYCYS

Protein O-GlcNAcase = target: T3, Protein O-GlcNAcase (Homo sapiens, UniProt O60502); assay: Inhibition of recombinant human OGA expressed in Escherichia coli BL21(DE3) using varying levels of 4-MU-GlcNAc as substrate measured after 30 mins by fluorescence assay
T3 sequence (O60502 whole entry): T1 sequence (whole entry)

[3] = target: T4, Chitooligosaccharidolytic beta-N-acetylglucosaminidase (Ostrinia furnacalis, UniProt Q06GJ0); assay: Inhibition of Ostrinia furnacalis Hex1 expressed in Pichia pastoris using varying levels of 4-MU-GlcNAc as substrate measured after 30 mins by fluorescence assay
T4 sequence (Q06GJ0 whole entry): T2 sequence (whole entry)

[4] = target: T1, Protein O-GlcNAcase (Homo sapiens); assay: Inhibition of recombinant human OGA expressed in Escherichia coli BL21(DE3) at 200 uM using 4-MU-GlcNAc as substrate measured after 30 mins by fluorescence assay relative to control
[5] = target: T2, Chitooligosaccharidolytic beta-N-acetylglucosaminidase (Ostrinia furnacalis); assay: Inhibition of Ostrinia furnacalis Hex1 expressed in Pichia pastoris at 200 uM using varying levels of 4-MU-GlcNAc as substrate measured after 30 mins by fluorescence assay relative to control

SMILES | inhibition [1] [%] | inhibition [2] [%] | Ki (Protein O-GlcNAcase) [µM] | Ki [3] [µM] | inhibition [4] [%] | inhibition [5] [%]
CC(=O)N[C@H]1/C(=N/OC(=O)Nc2ccccc2)O[C@H](CO)[C@@H](O)[C@@H]1O | 98.9 | 97.5 |  |  |  | 
CC(=O)N[C@@H]1[C@@H](O)[C@H](O)[C@@H](CO)O[C@H]1SCCC(=O)NCCCCN1C(=O)c2cccc3cccc(c23)C1=O | 34.3 | 26.9 |  |  |  | 
CC(=O)N[C@@H]1[C@@H](O)[C@H](O)[C@@H](CO)O[C@H]1SCCC(=O)NCCCN1C(=O)c2cccc3cccc(c23)C1=O | 59.4 | 25.3 |  |  |  | 
CC(=O)N[C@@H]1[C@@H](O)[C@H](O)[C@@H](CO)O[C@H]1SCC(=O)NCCCCN1C(=O)c2cccc3cccc(c23)C1=O | 50 | 29.1 |  |  |  | 
CC(=O)N[C@@H]1[C@@H](O)[C@H](O)[C@@H](CO)O[C@H]1SCCCCCCn1cc(CN2C(=O)c3cccc4cccc(c34)C2=O)nn1 | 25.7 | 93.2 | > 200 | 21.8 | < 50 | 
CC(=O)N[C@@H]1[C@@H](O)[C@H](O)[C@@H](CO)O[C@H]1SCCC(=O)NCCN1C(=O)c2cccc3cccc(c23)C1=O | 66.9 | 25.8 |  |  |  | 
CC(=O)N[C@@H]1[C@@H](O)[C@H](O)[C@@H](CO)O[C@H]1SCCCCCn1cc(CN2C(=O)c3cccc4cccc(c34)C2=O)nn1 | 26 | 91.9 |  |  |  | 
CC(=O)N[C@@H]1[C@@H](O)[C@H](O)[C@@H](CO)O[C@H]1S | 12 | 0 |  |  |  | 

Other lines, results leading:

inhibition [1] [%] | inhibition [2] [%] | Ki (Protein O-GlcNAcase) [µM] | Ki [3] [µM] | inhibition [4] [%] | inhibition [5] [%] | SMILES
22.2 | 28.1 |  |  |  |  | NN1C(=O)c2cccc3cccc(c23)C1=O
27.8 | 84 |  |  |  |  | CC(=O)N[C@@H]1[C@@H](O)[C@H](O)[C@@H](CO)O[C@H]1SCCn1cc(CN2C(=O)c3cccc4cccc(c34)C2=O)nn1
38.6 | 18.4 |  |  |  |  | CC(=O)N[C@@H]1[C@@H](O)[C@H](O)[C@@H](CO)O[C@H]1SCC(=O)NCCN1C(=O)c2cccc3cccc(c23)C1=O
22.7 | 81.6 |  |  |  |  | CC(=O)N[C@@H]1[C@@H](O)[C@H](O)[C@@H](CO)O[C@H]1SCCCn1cc(CN2C(=O)c3cccc4cccc(c34)C2=O)nn1
25.1 | 89.9 |  |  |  |  | CC(=O)N[C@@H]1[C@@H](O)[C@H](O)[C@@H](CO)O[C@H]1SCCCCn1cc(CN2C(=O)c3cccc4cccc(c34)C2=O)nn1
31.1 | 24.9 |  |  |  |  | CC(=O)N[C@@H]1[C@@H](O)[C@H](O)[C@@H](CO)O[C@H]1SCC(=O)NN1C(=O)c2cccc3cccc(c23)C1=O
97.6 | 29.2 |  | > 200 |  | < 50 | CC(=O)N[C@@H]1[C@@H](O)[C@H](O)[C@@H](CO)O[C@H]1SCC(=O)NCCCN1C(=O)c2cccc3cccc(c23)C1=O
18.5 | 17.9 |  |  |  |  | CC(=O)N[C@@H]1[C@@H](O)[C@H](O)[C@@H](CO)O[C@H]1SCn1cc(CN2C(=O)c3cccc4cccc(c34)C2=O)nn1
